ChEMBL document CHEMBL1201862, “PubChem BioAssay data set” (2004)
Calls of active or inactive are those of the source.

Experiments:
[1] = target: Peroxisome proliferator-activated receptor gamma/Nuclear receptor corepressor 2 (Homo sapiens, UniProt P37231+Q9Y618); format: functional
[2] = target: Photoreceptor-specific nuclear receptor (Homo sapiens, UniProt Q9Y5X4); format: functional;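 note: potency for compounds that break the NR2E3 corepressor complex and count as activators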
[3] = inhibitors of firefly luciferase expression or activity, dose response, H4 neuroglioma cells, luminescence (AID 1990); format: functional, cell-based
[4] = HepG2 cell cytotoxicity, dose response, cytotoxicity control for Shn3 inhibitor project, CellTiter-Glo, cherry-picked (AID 624134); format: functional, cell-based
[5] = Luminescence-based counterscreen assay for KLF5 inhibitors: dose response cell-based high throughput screening assay to identify cytotoxic compounds using the IEC-6 intestinal epithelial cell line. [Related pubchem assays: 1700 (Primary screen.), 1834 (Confirmation screen.), 1858 (Summary AID.), 1905 (Counterscreen.)]; format: functional
[6] = Shn3 3'UTR reporter inhibitors, dose response, cell-based, Clone20 osteoblasts, firefly luciferase, cherry-picked (AID 624132); format: functional;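 note: firefly luciferase luminescence from reporter carrying the Shn3 3'UTR in osteoblasts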
[7] = reduction of Shn3 3'UTR firefly luciferase signal, dose response, Schnurri-3 inhibitor project, cell-based, Clone20 osteoblasts, cherry-pick, set 2 (AID 720490); format: functional;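 note: actives lower the luminescence signal as inhibitors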
[8] = target: T1, Microphthalmia-associated transcription factor (Homo sapiens, UniProt O75030); experiment: TRPM1 promoter luciferase signal decrease, dose response, MITF inhibitor project, cell-based, SK-MEL-5, cherry-picked, set 3 (AID 493073); format: functional
T1 sequence (O75030 whole entry): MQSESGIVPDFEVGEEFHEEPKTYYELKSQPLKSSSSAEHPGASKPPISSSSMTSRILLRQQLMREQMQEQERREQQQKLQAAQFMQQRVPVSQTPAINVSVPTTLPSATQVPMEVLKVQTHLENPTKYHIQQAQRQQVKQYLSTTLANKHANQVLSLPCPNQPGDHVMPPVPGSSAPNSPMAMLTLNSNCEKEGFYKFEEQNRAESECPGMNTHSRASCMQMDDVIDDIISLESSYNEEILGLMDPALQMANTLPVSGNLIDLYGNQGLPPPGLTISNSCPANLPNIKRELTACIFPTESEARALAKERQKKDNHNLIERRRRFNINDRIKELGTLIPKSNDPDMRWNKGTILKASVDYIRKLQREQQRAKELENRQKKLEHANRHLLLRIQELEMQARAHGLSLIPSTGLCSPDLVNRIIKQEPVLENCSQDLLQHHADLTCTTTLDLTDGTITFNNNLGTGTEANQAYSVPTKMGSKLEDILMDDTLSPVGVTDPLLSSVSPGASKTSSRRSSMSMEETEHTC

[9] = Luminescence Cell-Based Dose Response HTS to Identify Inhibitors of 5'UTR Stem-Loop Driven Prion Protein mRNA Translation in H4 Neuroglioblastoma Cells. [Related pubchem assays: 1827 (Project Summary), 1813 (Primary HTS)]; format: functional
Insulin-degrading enzyme = target: T2, Insulin-degrading enzyme (Homo sapiens, UniProt P14735); experiment: Dose Response: Fluorescence polarization-based cell-based high throughput dose response assay for inhibitors of insulin-degrading enzyme (IDE). [Related pubchem assays: 434962 (Primary screen (IDE inhibitors in singlicate)), 449730 (Counterscreen (Cytotoxicity in triplicate)), 435028 (Confirmation (IDE inhibitors in triplicate)), 434984 (Summary …; format: functional
T2 sequence (P14735 whole entry): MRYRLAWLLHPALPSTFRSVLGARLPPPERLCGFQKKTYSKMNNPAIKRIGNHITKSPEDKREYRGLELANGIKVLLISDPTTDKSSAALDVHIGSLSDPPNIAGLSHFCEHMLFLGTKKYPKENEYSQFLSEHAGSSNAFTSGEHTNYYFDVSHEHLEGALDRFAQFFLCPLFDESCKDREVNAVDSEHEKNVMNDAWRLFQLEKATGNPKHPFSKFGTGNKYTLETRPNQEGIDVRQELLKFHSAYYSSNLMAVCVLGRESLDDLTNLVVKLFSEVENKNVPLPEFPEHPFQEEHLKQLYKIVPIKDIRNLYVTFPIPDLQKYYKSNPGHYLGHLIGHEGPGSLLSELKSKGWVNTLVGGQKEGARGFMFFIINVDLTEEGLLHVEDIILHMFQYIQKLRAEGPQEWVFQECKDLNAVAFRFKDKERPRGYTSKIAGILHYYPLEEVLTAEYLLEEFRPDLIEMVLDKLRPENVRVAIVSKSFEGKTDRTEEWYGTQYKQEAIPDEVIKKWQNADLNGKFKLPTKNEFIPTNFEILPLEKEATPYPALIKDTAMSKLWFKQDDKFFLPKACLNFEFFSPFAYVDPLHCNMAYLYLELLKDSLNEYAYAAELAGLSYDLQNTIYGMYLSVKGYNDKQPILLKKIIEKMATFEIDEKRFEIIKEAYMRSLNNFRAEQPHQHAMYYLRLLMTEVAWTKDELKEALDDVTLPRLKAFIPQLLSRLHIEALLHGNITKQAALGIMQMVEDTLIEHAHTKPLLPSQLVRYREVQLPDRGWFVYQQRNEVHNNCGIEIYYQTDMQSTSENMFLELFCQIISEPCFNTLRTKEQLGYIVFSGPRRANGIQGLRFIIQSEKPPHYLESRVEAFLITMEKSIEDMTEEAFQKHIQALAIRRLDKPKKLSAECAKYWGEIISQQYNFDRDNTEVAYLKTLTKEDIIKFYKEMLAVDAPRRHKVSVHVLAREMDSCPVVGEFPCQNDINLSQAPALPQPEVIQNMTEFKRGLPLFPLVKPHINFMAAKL

[10] = Counterscreen for IDE inhibitors: Luminescence-based cell-based high throughput dose response assay to identify compounds that are cytotoxic to HEK cells. [Related pubchem assays: 434962 (Primary screen (IDE inhibitors in singlicate)), 449730 (Counterscreen (Cytotoxicity in triplicate)), 435028 (Confirmation (IDE inhibitors in triplicate)) …; format: functional; conditions: HEK293
HEK293 = experiment: Fluorescence-based counterscreen for potentiators or agonists of NPY-Y2: cell-based high-throughput dose response assay to identify inhibitors of cyclic nucleotide gated ion channel (CNGC) activity. In this assay, the parental HEK293 cell line transfected with a cyclic-nucleotide gated ion channel (CNGC)-based cAMP sensor is used to measure inhibition of isoproterenol-induced CNGC activity by test compound.; format: functional; conditions: Homo sapiens;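 note: stimulus is 1 µM isoproterenol at EC100 plus PDE inhibitor Ro 20-1724 at 25 µM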
[11] = target: T3, Neuropeptide Y receptor type 2 (Homo sapiens, UniProt P49146); experiment: Fluorescence-based cell-based high-throughput dose response assay for agonists of NPY-Y2. [Related pubchem assays: 1703 (Screening assay (CNGC inhibitors).), 1359 (Screening assay (NPY-Y2 potentiators or agonists).), 1304 (Screening assay (NPY-Y1 potentiators or agonists).), 1710 (Screening assay (NPY-Y2 agonists).), 1791 (Summary AID.)]; format: functional
T3 sequence (P49146 whole entry): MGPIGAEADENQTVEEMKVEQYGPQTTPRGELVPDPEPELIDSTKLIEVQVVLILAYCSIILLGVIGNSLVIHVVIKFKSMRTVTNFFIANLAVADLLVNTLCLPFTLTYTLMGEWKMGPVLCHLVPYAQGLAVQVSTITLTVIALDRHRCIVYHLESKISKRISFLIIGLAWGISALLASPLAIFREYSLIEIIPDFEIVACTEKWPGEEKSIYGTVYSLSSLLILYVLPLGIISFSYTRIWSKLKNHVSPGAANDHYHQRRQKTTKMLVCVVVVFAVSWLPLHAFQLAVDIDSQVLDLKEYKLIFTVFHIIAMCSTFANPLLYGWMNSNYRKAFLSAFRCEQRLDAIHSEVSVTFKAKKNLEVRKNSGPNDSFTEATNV

[12] = target: T4, Neuropeptide Y receptor type 1 (Homo sapiens, UniProt P25929); experiment: Fluorescence-based counterscreen for agonists of NPY-Y2: cell-based high-throughput dose response assay for agonists of NPY-Y1.; format: functional
T4 sequence (P25929 whole entry): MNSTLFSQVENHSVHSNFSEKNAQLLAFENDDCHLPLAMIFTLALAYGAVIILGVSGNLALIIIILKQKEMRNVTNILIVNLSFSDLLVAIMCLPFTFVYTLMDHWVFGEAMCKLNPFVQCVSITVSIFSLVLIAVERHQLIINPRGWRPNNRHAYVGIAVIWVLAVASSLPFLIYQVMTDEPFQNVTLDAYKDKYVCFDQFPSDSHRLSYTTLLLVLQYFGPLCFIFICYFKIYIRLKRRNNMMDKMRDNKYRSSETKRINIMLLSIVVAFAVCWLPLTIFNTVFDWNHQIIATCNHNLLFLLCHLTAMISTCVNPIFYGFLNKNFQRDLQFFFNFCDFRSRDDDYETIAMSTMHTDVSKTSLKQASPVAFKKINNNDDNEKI

[13] = A cytotoxicity screen of small molecule inhibitors of the PhoP region in Salmonella typhi identified in the primary screen. [Related pubchem assays: 1850, 1864, 1985 ]; format: functional
Vero [14] = experiment: cells; format: functional, cell-based; conditions: Chlorocebus sabaeus
Vero [15] = experiment: cells; format: functional; conditions: Chlorocebus sabaeus
NS3 = NS3 (Hepatitis C virus, UniProt A3EZJ3); experiment: PubChem AID 2173; parameters: species or system Hepacivirus hominis
Chain of NS3 (A3EZJ3 whole entry): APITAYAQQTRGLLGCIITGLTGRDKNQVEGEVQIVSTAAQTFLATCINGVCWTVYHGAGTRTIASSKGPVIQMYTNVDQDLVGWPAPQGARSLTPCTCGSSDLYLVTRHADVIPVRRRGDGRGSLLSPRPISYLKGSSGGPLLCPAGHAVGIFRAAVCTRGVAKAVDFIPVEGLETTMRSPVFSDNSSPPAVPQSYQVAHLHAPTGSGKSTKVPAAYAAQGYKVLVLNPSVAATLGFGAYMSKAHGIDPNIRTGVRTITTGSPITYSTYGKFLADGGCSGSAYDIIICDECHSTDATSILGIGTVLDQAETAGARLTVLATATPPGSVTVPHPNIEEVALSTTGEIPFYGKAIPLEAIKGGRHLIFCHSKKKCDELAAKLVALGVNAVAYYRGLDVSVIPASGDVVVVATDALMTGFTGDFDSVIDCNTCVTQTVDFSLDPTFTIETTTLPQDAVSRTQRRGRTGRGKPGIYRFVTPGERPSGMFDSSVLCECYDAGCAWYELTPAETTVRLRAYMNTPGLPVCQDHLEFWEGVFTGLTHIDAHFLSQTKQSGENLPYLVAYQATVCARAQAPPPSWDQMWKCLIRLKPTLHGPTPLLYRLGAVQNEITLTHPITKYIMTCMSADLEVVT

[16] = target: Induced myeloid leukemia cell differentiation protein Mcl-1 (Homo sapiens, UniProt Q07820); format: functional
[17] = target: Lysosomal acid glucosylceramidase (Homo sapiens, UniProt P04062); experiment: Dose response cell-based high throughput screening assay to identify enhancers of beta-glucosidase activity. [Related pubchem assays: 784 ]; format: functional
Chain of Lysosomal acid glucosylceramidase (P04062 whole entry): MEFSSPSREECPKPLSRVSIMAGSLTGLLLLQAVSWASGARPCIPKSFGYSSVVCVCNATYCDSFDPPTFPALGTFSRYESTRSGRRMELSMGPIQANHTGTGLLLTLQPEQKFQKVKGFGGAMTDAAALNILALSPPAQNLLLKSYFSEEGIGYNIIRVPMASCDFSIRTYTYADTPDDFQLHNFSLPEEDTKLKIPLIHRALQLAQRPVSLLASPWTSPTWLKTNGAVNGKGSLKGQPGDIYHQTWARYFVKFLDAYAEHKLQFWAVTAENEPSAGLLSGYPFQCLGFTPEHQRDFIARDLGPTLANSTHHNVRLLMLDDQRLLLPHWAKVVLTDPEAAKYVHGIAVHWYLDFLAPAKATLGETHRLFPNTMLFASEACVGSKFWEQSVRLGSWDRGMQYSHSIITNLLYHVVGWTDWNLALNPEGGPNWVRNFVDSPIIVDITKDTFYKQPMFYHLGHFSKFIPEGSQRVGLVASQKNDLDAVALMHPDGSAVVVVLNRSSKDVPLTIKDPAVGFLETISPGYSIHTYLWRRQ

[18] = target: T5, Calpain-2 catalytic subunit (Sus scrofa, UniProt P43367); experiment: pig calpain II inhibitor potency, dose response, biochemical, fluorogenic peptide substrate (AID 1420); format: functional
T5 sequence (P43367 whole entry): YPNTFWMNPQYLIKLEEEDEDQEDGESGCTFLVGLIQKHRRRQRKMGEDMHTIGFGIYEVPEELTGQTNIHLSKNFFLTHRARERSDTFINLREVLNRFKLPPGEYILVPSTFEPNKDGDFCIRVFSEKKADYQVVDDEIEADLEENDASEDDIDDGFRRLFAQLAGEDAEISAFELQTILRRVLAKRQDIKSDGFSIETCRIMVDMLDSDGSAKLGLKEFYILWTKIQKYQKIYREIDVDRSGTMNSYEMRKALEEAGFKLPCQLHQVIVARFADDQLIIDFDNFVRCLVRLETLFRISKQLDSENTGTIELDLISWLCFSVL

[19] = target: Eukaryotic translation initiation factor 4E (Mus musculus, UniProt P63073); experiment: eIF4E–eIF4G protein interaction inhibitors, dose response, biochemical, TR-FRET (AID 855); format: functional;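 note: potency for disrupting eIF4E binding to eIF4GI seen as loss of FRET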
Chain of Eukaryotic translation initiation factor 4E (P63073 whole entry): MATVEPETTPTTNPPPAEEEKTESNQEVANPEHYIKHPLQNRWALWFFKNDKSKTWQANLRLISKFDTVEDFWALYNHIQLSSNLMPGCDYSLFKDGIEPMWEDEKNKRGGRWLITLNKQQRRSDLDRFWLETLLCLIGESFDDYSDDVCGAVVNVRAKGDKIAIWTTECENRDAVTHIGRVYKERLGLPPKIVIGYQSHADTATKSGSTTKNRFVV

Escherichia coli = experiment: microbe, parasite or virus in culture

Chain of Peroxisome proliferator-activated receptor gamma/Nuclear receptor corepressor 2 (P37231 whole entry): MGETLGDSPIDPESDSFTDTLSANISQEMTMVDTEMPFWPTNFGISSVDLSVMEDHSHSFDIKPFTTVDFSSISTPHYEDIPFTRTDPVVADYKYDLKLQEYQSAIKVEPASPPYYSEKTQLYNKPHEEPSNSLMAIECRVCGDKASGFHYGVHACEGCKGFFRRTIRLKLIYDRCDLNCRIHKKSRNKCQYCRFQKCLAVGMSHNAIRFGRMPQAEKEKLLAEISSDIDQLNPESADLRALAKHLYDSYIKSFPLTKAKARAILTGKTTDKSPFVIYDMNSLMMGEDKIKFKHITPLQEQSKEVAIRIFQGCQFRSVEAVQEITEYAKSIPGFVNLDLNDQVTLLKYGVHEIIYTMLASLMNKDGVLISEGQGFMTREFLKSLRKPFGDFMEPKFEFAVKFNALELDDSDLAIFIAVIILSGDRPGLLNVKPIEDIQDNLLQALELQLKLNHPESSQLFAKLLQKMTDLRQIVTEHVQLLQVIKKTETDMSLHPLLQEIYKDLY
Chain of Peroxisome proliferator-activated receptor gamma/Nuclear receptor corepressor 2 (Q9Y618 whole entry): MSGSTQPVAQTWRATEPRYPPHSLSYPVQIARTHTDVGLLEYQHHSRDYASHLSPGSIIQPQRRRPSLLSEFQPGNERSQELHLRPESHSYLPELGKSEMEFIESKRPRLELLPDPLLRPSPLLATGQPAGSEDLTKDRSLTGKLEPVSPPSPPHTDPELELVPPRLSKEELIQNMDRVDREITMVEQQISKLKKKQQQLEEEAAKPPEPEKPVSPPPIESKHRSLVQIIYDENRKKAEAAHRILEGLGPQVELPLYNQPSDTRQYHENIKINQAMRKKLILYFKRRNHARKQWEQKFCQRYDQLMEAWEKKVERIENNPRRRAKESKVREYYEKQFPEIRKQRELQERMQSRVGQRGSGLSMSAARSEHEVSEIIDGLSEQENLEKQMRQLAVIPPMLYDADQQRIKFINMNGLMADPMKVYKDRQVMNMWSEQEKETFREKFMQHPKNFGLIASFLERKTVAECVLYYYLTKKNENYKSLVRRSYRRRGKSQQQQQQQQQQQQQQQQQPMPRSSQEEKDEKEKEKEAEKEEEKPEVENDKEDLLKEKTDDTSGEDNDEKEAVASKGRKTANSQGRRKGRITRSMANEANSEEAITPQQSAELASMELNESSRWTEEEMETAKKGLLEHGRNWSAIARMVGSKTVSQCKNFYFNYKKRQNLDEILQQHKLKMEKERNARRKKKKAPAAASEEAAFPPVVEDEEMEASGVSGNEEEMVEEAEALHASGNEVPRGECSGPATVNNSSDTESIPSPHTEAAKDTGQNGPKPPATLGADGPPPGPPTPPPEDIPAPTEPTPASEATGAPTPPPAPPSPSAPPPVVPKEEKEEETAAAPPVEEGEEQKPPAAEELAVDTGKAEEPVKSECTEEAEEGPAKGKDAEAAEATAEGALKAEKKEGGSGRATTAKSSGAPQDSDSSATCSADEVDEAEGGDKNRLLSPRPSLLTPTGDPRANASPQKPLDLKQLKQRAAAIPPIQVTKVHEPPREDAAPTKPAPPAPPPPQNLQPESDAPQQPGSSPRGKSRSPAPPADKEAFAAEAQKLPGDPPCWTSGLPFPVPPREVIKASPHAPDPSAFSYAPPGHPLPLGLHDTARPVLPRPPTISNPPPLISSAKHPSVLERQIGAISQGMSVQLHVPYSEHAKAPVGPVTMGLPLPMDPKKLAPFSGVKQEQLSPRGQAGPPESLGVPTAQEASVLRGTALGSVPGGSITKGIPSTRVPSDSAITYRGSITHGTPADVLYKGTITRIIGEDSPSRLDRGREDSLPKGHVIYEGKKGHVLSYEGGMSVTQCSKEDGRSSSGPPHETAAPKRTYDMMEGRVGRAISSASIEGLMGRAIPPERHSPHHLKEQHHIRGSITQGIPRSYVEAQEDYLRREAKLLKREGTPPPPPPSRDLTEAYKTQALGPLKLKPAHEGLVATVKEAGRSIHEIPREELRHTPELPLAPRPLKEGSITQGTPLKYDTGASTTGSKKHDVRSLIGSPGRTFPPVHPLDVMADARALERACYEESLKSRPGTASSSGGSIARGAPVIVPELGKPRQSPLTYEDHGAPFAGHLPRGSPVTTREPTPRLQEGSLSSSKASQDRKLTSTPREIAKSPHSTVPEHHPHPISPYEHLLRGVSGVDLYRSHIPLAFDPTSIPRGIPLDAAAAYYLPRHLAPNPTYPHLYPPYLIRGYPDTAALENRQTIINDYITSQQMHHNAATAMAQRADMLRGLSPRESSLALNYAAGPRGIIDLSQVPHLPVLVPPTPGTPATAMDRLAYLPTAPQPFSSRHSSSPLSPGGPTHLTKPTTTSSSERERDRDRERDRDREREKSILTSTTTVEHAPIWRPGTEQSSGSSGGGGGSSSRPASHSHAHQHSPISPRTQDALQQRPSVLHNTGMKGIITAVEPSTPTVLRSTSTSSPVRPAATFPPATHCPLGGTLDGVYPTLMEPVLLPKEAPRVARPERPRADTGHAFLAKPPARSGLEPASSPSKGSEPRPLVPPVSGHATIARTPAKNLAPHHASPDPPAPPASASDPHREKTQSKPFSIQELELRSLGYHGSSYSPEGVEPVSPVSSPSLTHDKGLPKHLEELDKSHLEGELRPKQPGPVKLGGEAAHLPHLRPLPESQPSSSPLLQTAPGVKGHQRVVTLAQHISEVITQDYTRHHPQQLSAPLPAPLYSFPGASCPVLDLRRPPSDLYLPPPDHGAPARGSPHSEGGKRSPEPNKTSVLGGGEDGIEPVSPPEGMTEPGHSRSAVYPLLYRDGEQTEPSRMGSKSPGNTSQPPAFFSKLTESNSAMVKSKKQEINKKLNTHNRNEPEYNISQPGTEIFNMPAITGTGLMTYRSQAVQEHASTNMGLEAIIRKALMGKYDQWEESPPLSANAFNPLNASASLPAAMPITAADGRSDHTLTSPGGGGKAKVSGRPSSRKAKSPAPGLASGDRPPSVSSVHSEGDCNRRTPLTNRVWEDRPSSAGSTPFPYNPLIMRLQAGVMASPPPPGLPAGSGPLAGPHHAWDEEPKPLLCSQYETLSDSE
Chain of Photoreceptor-specific nuclear receptor (Q9Y5X4 whole entry): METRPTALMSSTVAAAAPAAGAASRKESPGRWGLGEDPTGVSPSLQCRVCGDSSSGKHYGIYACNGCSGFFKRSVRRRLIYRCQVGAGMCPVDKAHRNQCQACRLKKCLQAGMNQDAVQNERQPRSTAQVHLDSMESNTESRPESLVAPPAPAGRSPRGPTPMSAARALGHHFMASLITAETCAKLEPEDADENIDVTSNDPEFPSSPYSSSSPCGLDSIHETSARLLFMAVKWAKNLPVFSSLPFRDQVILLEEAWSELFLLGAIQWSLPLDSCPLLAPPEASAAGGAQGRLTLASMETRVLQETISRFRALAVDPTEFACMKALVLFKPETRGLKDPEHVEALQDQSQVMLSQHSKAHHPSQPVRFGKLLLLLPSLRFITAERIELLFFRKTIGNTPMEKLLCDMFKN

Cc1ccc(C(=O)C2=C(O)C(=O)N(Cc3cccnc3)C2c2ccc(Br)cc2)o1 (stereo not drawn)
IC50 [1]: 9.36 µM (active)
IC50 [2]: > 39.8 µM (not active)

COc1ccc(-n2ncc3c(N4CCCCC4)ncnc32)cc1
EC50 [3]: 1.72 µM (inconclusive)
AC50 [4]: > 70 µM (inactive)
IC50 [5]: > 39.8 µM (not active)
AC50 [6]: 2.87 µM (active)
AC50 [7]: 11 µM (active)
AC50 [8]: 1.48 µM (active)
EC50 [9]: 282 nM (active)

Cc1c(CCC(=O)NCCCn2ccnc2)c(=O)oc2cc3oc4c(c3cc12)CCCC4
IC50 (Insulin-degrading enzyme): 4.31 µM (active)
IC50 [10]: 14.4 µM (not active)

N#Cc1c(Cl)nsc1NN
EC50 (HEK293): 9.97 µM (active)
EC50 [11]: 9.25 µM (active)
EC50 [12]: 7.05 µM (active)

O=C(N/N=C/c1cccs1)c1ccc2[nH]cnc2c1
EC50 [13]: > 50 µM (active)

CNc1ccc(Br)cc(C(=O)/C=C/c2cccc(OC)c2)c1=O
IC50 (Vero [14]): 7.82 µM (active)
CC50 (Vero [15]): 12.7 µM (active)
IC50 (NS3): 8.97 µM (active)
IC50 [16]: 1.92 µM (active)

Cc1ccc(C(C(=O)NC2CCCCC2)N2CCCC2)cc1 (stereo not drawn)
EC50 [17]: > 50 µM (not active)

O=C(Nc1cccc(-c2nc3cccnc3s2)c1)C1c2ccccc2Oc2ccccc21
IC50 [18]: 7.46 µM (active)
IC50 [19]: > 64 µM (inactive)
AC50 (Escherichia coli): 50.5 µM (active)
